Test results reported in article PMC3108470 (Journal of Medicinal Chemistry, 2011).

Tests used:
[1] = test system: guinea pig ileum longitudinal smooth muscle; assay: Relaxant activity on K+-depolarized
[2] = biological target: ΔF508-CFTR (Homo sapiens, UniProt P13569, DEL508-508); assay: ΔF508-CFTR potentiator assay, HS-YFP fluorescence quenching; format: cell-based; conditions: for nH (Hill coefficient): FRT cells, forskolin 20 μM, Hill fit; for activity on ΔF508-CFTR: inactive up to 20 μM
[3] = test system: guinea pig left atrium; assay: Negative inotropic activity in isolated left atrium driven at 1 Hz
[4] = test system: guinea pig right atrium; conditions: cited from earlier work; for intrinsic activity, chronotropic effect: at the highest concentration studied
[5] = test system: guinea pig left atrium; conditions: cited from earlier work; for intrinsic activity, inotropic effect: at the highest concentration studied
[6] = test system: guinea pig aortic strip; assay: Vasorelaxant activity, calcium-induced contraction of K+-depolarized; conditions: result in words

| SMILES | nH (Hill coefficient) [2] | activity on ΔF508-CFTR [2] | further results |
| --- | --- | --- | --- |
| COC(=O)C1=C(C)NC(C)=C(C(=O)OC)C1c1c(-c2cccc(OC(F)(F)F)c2)nc2sccn12 [Compound 38] | 0.81 |  | GPILSM relaxant potency, times less potent than nifedipine [1]: about 65 times |
| COC(=O)C1=C(C)NC(C)=C(C(=O)OC)C1c1c(C)nc2sc(Cl)cn12 [Compound 29] | 1.55 |  | negative inotropic effect, times greater than that of nifedipine [3]: about 2.6 times |
| COC(=O)C1=C(C)NC(C)=C(C(=O)OC)C1c1c(Cl)nc2sc(Cl)cn12 [Compound 31] | 1.04 |  | negative inotropic effect, times greater than that of nifedipine [3]: about 2.6 times |
| CCOC(=O)C1=C(C)NC(C)=C(C(=O)OCC)C1c1c(Cl)nc2sc(C)cn12 [Compound 25, Diethyl 4-(6-Chloro-2-methylimidazo[2,1-b]thiazol-5-yl)-2,6-dimethyl-1,4-dihydropyridine-3,5-dicarboxylate] | 0.86 |  | GPILSM relaxant potency, times less potent than nifedipine [1]: about 65 times |
| COC(=O)C1=C(C)NC(C)=C(C(=O)OC)C1c1c(-c2cc(OC)c(OC)c(OC)c2)nc2sc(Cl)cn12 [Compound 44] |  | inactive ^b | intrinsic activity, chronotropic effect [4]: < 40%; intrinsic activity, inotropic effect [5]: less than 50% |
| COC(=O)C1=C(C)NC(C)=C(C(=O)OC)C1c1c(-c2cc(OC)ccc2OC)nc2sc(C)cn12 [Compound 40] |  | inactive ^b |  |
| COC(=O)C1=C(C)NC(C)=C(C(=O)OC)C1c1c(Cl)nc2sc(C)cn12 [Compound 32] |  | inactive ^b |  |
| COC(=O)C1=C(C)NC(C)=C(C(=O)OC)C1c1c(-c2cccc(OC)c2)nc2sccn12 [Compound 36] | 1.5 |  | GPILSM relaxant potency, times less potent than nifedipine [1]: about 65 times |
| CCOC(=O)C1=C(C)NC(C)=C(C(=O)OCC)C1c1c(-c2ccc(C(F)(F)F)cc2)nc2sccn12 [Compound 18, Diethyl 2,6-Dimethyl-4-(6-(4-(trifluoromethyl)phenyl)imidazo[2,1-b]thiazol-5-yl)-1,4-dihydropyridine-3,5-dicarboxylate] | 1.69 |  |  |
| O=c1c(-c2ccc(O)cc2)coc2cc(O)cc(O)c12 [genistein, reference compound] | 1.3 |  | inotropic activity ([5]; up to 10 μM): positive inotropic activity; vascular effect in K+-depolarized (80 mM) vascular smooth muscle [6]: inactive |
| COC(=O)C1=C(C)NC(C)=C(C(=O)OC)C1c1c(-c2ccccc2)nc2n1CCS2 [Compound 23, Dimethyl 2,6-Dimethyl-4-(6-phenyl-2,3-dihydroimidazo[2,1-b]thiazol-5-yl)-1,4-dihydropyridine-3,5-dicarboxylate] |  | inactive ^b |  |
| C=CCOC(=O)C1=C(C)NC(C)=C(C(=O)OCC=C)C1c1c(-c2cc(OC)ccc2OC)nc2sccn12 [Compound 24, Diallyl 4-(6-(2,5-Dimethoxyphenyl)imidazo[2,1-b]thiazol-5-yl)-2,6-dimethyl-1,4-dihydropyridine-3,5-dicarboxylate] |  | inactive ^b |  |
| COC(=O)C1=C(C)NC(C)=C(C(=O)OC)C1c1c(C(F)(F)F)nc2sc(C)cn12 [Compound 28] | 0.88 |  | intrinsic activity, chronotropic effect [4]: < 40%; intrinsic activity, inotropic effect [5]: less than 50%; GPILSM relaxant potency, times less potent than nifedipine [1]: about 65 times |
| COC(=O)C1=C(C)NC(C)=C(C(=O)OC)C1c1c(-c2ccc(OC(F)(F)F)cc2)nc2sccn12 [Compound 20, Dimethyl 2,6-Dimethyl-4-(6-(4-(trifluoromethoxy)phenyl)imidazo[2,1-b]thiazol-5-yl)-1,4-dihydropyridine-3,5-dicarboxylate] | 1.8 |  | GPILSM relaxant potency, times less potent than nifedipine [1]: about 3 times |
| COC(=O)C1=C(C)NC(C)=C(C(=O)OC)C1c1c(-c2cc(OC)c([N+](=O)[O-])cc2OC)nc2sc(Cl)cn12 [Compound 45] |  | inactive ^b | EC50 ([4]; read-out: EC50 of chronotropic negative activity, Probit analysis, ref RS1): 18.5 µM; GPILSM relaxant potency, times less potent than nifedipine [1]: about 65 times |
| C=CCOC(=O)C1=C(C)NC(C)=C(C(=O)OCC=C)C1/C=C/c1ccccc1OC [Compound 50, reference compound] | 1.18 |  |  |
| COC(=O)C1=C(C)NC(C)=C(C(=O)OC)C1c1c(C)nc2sc(C)cn12 [Compound 30] |  | inactive ^b | intrinsic activity, chronotropic effect [4]: < 40%; intrinsic activity, inotropic effect [5]: less than 50% |
| C=CCOC(=O)C1=C(C)NC(C)=C(C(=O)OCC=C)C1c1c(-c2ccc(OC(F)(F)F)cc2)nc2sccn12 [Compound 21, Diallyl 2,6-Dimethyl-4-(6-(4-(trifluoromethoxy)phenyl)imidazo[2,1-b]thiazol-5-yl)-1,4-dihydropyridine-3,5-dicarboxylate] | 1.09 |  | GPILSM relaxant potency, times less potent than nifedipine [1]: about 3 times |
| CCOC(=O)C1=C(C)NC(C)=C(C(=O)OCC)C1c1c(-c2ccc(Cl)c(Cl)c2Cl)nc2sccn12 [Compound 26, Diethyl 2,6-Dimethyl-4-(6-(2,3,4-trichlorophenyl)imidazo[2,1-b]thiazol-5-yl)-1,4-dihydropyridine-3,5-dicarboxylate] | 0.44 |  | GPILSM relaxant potency, times less potent than nifedipine [1]: about 65 times |

| SMILES | nH (Hill coefficient) [2] | activity on ΔF508-CFTR [2] | further results |
| --- | --- | --- | --- |
| COC(=O)C1=C(C)NC(C)=C(C(=O)OC)C1c1c(-c2ccc(C(F)(F)F)cc2)nc2sccn12 [Compound 17, Dimethyl 2,6-Dimethyl-4-(6-(4-(trifluoromethyl)phenyl)imidazo[2,1-b]thiazol-5-yl)-1,4-dihydropyridine-3,5-dicarboxylate] | 2.15 |  | negative inotropic effect, times greater than that of nifedipine [3]: about 2.6 times; GPILSM relaxant potency, times less potent than nifedipine [1]: about 3 times |
| COC(=O)C1=C(C)NC(C)=C(C(=O)OC)C1c1c(-c2cc(OC)ccc2OC)nc2sc(Cl)cn12 [Compound 41] |  | inactive ^b |  |
| COC(=O)C1=C(C)NC(C)=C(C(=O)OC)C1c1c(-c2ccccc2OC)nc2sccn12 [Compound 35] |  | inactive ^b |  |
| COC(=O)C1=C(C)NC(C)=C(C(=O)OC)C1c1c(-c2c(OC)ccc(OC)c2[N+](=O)[O-])nc2sccn12 [Compound 46] |  | inactive ^b |  |
| COC(=O)C1=C(C)NC(C)=C(C(=O)OC)C1c1c(-c2ccccc2OC(F)(F)F)nc2sccn12 [Compound 37] |  | inactive ^b |  |
| CCOC(=O)C1=C(C)NC(C)=C(C(=O)OCC)C1c1cccc(Oc2ccccc2)c1 [Compound 48, reference compound] | 0.97 |  |  |
| CCOC(=O)C1=C(C)NC(C)=C(C(=O)OCC)C1c1c(C(F)(F)F)nc2sccn12 [Compound 16, Diethyl 2,6-Dimethyl-4-(6-(trifluoromethyl)imidazo[2,1-b]thiazol-5-yl)-1,4-dihydropyridine-3,5-dicarboxylate] | 0.66 |  | GPILSM relaxant potency, times less potent than nifedipine [1]: about 65 times |
| COC(=O)C1=C(C)NC(C)=C(C(=O)OC)C1c1c(-c2cccc(C(F)(F)F)c2)nc2sccn12 [Compound 39] | 1.01 |  | GPILSM relaxant potency, times less potent than nifedipine [1]: about 65 times |
| COC(=O)C1=C(C)NC(C)=C(C(=O)OC)C1c1c(-c2ccc(OC)c(OC)c2)nc2sccn12 [Compound 43] |  | inactive ^b |  |
| COC(=O)C1=C(C)NC(C)=C(C(=O)OC)C1c1ccccc1[N+](=O)[O-] [nifedipine, reference compound] | 2.58 |  | potency increase in nonvascular smooth muscle compared to aortic strips ([1]; GPILSM vs aortic strips): 6 times |
| C=CCOC(=O)C1=C(C)NC(C)=C(C(=O)OCC=C)C1c1ccc(C(C)(C)C)cc1 [Compound 49, reference compound] | 3.58 |  |  |
| COC(=O)C1=C(C)NC(C)=C(C(=O)OC)C1c1c(Cl)nc2scc(C)n12 [Compound 33] | 0.82 |  | negative inotropic effect, times greater than that of nifedipine [3]: about 2.6 times |
| COC(=O)C1=C(C)NC(C)=C(C(=O)OC)C1c1c(-c2cc(OC)c(OC)cc2[N+](=O)[O-])nc2sccn12 [Compound 47] |  | inactive ^b |  |
| COC(=O)C1=C(C)NC(C)=C(C(=O)OC)C1c1c(Cl)nc2sc(C)c(C)n12 [Compound 34] | 1.32 |  |  |
| CCOC(=O)C1=C(C)NC(C)=C(C(=O)OCC)C1c1c(-c2ccccc2)nc2sc(C)cn12 [Compound 22, Diethyl 2,6-Dimethyl-4-(2-methyl-6-phenylimidazo[2,1-b]thiazol-5-yl)-1,4-dihydropyridine-3,5-dicarboxylate] | 0.93 |  |  |
| COC(=O)C1=C(C)NC(C)=C(C(=O)OC)C1c1c(C(F)(F)F)nc2sccn12 [Compound 27] | 1.89 |  |  |
| C=CCOC(=O)C1=C(C)NC(C)=C(C(=O)OCC=C)C1c1c(-c2ccc(C(F)(F)F)cc2)nc2sc(C)c(C)n12 [Compound 19, Diallyl 4-(2,3-Dimethyl-6-(4-(trifluoromethyl)phenyl)imidazo[2,1-b]thiazol-5-yl)-2,6-dimethyl-1,4-dihydropyridine-3,5-dicarboxylate] | 1.14 |  | negative inotropic over chronotropic selectivity ratio ([3]; EC50 chronotropic / EC50 inotropic): about 33 fold |
| CCc1cn2c(C3C(C(=O)OC)=C(C)NC(C)=C3C(=O)OC)c(-c3cc(OC)ccc3OC)nc2s1 [Compound 42] |  | inactive ^b |  |
